Each structure is given as a SMILES string.

This assay has as its target T1, human SLC6A19 and TMEM27 (Homo sapiens, UniProt Q695T7).
T1 construct: expressed in transfected cells
T1 sequence (Q695T7 1-634): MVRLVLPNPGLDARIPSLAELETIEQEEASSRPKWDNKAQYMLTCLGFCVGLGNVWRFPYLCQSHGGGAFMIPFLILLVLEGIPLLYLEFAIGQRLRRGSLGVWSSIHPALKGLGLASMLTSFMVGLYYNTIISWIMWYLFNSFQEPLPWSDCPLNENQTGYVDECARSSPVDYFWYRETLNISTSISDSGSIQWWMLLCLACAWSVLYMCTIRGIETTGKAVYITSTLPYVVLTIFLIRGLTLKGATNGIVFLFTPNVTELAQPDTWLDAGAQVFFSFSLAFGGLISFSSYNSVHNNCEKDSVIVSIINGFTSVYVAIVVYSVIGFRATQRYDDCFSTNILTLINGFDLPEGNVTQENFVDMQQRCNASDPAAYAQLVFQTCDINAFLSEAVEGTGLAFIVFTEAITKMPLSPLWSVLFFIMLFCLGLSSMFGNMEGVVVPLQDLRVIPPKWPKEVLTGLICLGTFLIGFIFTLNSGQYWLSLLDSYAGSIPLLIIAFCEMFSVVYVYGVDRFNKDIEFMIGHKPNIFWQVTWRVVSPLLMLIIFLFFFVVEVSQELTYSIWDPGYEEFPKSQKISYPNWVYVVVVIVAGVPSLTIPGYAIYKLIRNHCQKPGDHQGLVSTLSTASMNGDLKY
T1 sequence (Q9HBJ8 15-222 partner): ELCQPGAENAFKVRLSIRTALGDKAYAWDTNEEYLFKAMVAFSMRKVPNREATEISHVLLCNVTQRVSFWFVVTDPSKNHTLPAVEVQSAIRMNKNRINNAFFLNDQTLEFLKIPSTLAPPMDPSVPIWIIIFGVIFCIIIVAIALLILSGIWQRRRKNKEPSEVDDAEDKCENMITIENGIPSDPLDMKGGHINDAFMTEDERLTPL
Nature of the assay: Radiolabelled (3H) leucine uptake in CHO cells with doxycycline-inducible expression of human SLC6A19 and TMEM27 (Example B-1). It counts as cell-based. Conditions: CHO cells with doxycycline-inducible expression of human SLC6A19 and TMEM27, read-out: SLC6A19_Radioligand Uptake Assay IC50. In outline:
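CHO cells were induced with doxycycline for 18 h at 37 °C, washed in HBSS, then exposed to compounds for 1 h: 8-point, 3-fold dilutions in duplicate, 0.5% DMSO final. Uptake measured by scintillation counting after 2 h shaking. Activity normalized with positive control as 0% and DMSO as 100%.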
Turning to `CC(C)c1cc2cc(CNC(=O)C3(C)CC3)[nH]c2cc1OCc1cscn1` [Compound 186, N-((5-isopropyl-6-(thiazol-4-ylmethoxy)-1H-indol-2-yl)methyl)-1-methylcyclopropane-1-carboxamide], the IC50 worked out at 968 nM.

With `CC1(C(=O)NCc2cc3ccc(OCC45CC(C4)C5)cc3[nH]2)CC1` [Compound 189, N-((6-(bicyclo[1.1.1]pentan-1-ylmethoxy)-1H-indol-2-yl)methyl)-1-methylcyclopropane-1-carboxamide], the IC50 came out at 9830 nM.

For the compound `CC1(C(=O)NCc2cc3ccc(OCc4ccc5ccoc5c4)cc3[nH]2)CC1` [Compound 192, N-((6-(benzofuran-6-ylmethoxy)-1H-indol-2-yl)methyl)-1-methylcyclopropane-1-carboxamide], the IC50 amounted to 2510 nM.

With `CC1(C(=O)NCc2cc3ccc(OCCC45CC(C4)C5)cc3[nH]2)CC1` [Compound 193, N-((6-(2-(bicyclo[1.1.1]pentan-1-yl)ethoxy)-1H-indol-2-yl)methyl)-1-methylcyclopropane-1-carboxamide], the IC50 was 9880 nM.

With `Cc1cc(C(C)Cc2ccc3cc(CNC(=O)C4(C)CC4)[nH]c3c2)no1` (centres unmarked) [Compound 195, 1-methyl-N-((6-(2-(5-methylisoxazol-3-yl)propyl)-1H-indol-2-yl)methyl)cyclopropanecarboxamide], the IC50 was 14800 nM.

For the compound `CC1(C(=O)NCc2cc3cc(Cl)c(SCc4ccon4)cc3[nH]2)CC1` [Compound 197, N-((5-chloro-6-((isoxazol-3-ylmethyl)thio)-1H-indol-2-yl)methyl)-1-methylcyclo propanecarboxamide], the IC50 amounted to 154 nM.

For `CC1(C(=O)NCc2cc3cc(Cl)c(OCc4cccc(O)c4)cc3[nH]2)CC1` [Compound 198, N-((5-chloro-6-((3-hydroxybenzyl)oxy)-1H-indol-2-yl)methyl)-1-methylcyclopropane-1-carboxamide], the IC50 was determined as 2050 nM.

With `O=C(NCc1cc2ccc(OCc3ccon3)cc2[nH]1)N1CCOCC1` [Compound 199, N-((6-(isoxazol-3-ylmethoxy)-1H-indol-2-yl)methyl)morpholine-4-carboxamide], the IC50 came out at 1370 nM.

As for `O=C(NCc1cc2ccc(OCc3ccon3)cc2[nH]1)N1CCC(F)C1` (centres unmarked) [Compound 200, 3-fluoro-N-((6-(isoxazol-3-ylmethoxy)-1H-indol-2-yl)methyl)pyrrolidine-1-carboxamide], the IC50 was 752 nM.

Take `CC1(C(=O)NCc2cc3ccc(OCc4ccon4)c(F)c3[nH]2)CC1` [Compound 201, N-((7-fluoro-6-(isoxazol-3-ylmethoxy)-1H-indol-2-yl)methyl)-1-methylcyclopropane-1-carboxamide]: the IC50 worked out at 5070 nM.

For `CCc1cc2cc(CNC(=O)C3(C)CC3)[nH]c2cc1OCc1cscn1` [Compound 202, N-((5-ethyl-6-(thiazol-4-ylmethoxy)-1H-indol-2-yl)methyl)-1-methylcyclopropane-1-carboxamide], the IC50 is 1560 nM.

For the compound `CC1(C(=O)NCc2cc3cc(Cl)c(OCc4ccccc4O)cc3[nH]2)CC1` [Compound 203, N-((5-chloro-6-((2-hydroxybenzyl)oxy)-1H-indol-2-yl)methyl)-1-methylcyclopropane-1-carboxamide], the IC50 came out at 1090 nM.

Regarding `CC(C)c1cc2cc(CNC(=O)C3(C)CC3)[nH]c2cc1OCc1ccon1` [Compound 204, N-((5-isopropyl-6-(isoxazol-3-ylmethoxy)-1H-indol-2-yl)methyl)-1-methylcyclopropane-1-carboxamide], the IC50 was found to be 536 nM.

With `CC(=O)NCc1cc2cc(Cl)c(OCc3cocn3)cc2[nH]1` [Compound 206, N-((5-chloro-6-(oxazol-4-ylmethoxy)-1H-indol-2-yl)methyl)acetamide], the IC50 was found to be 217 nM.

`CC(=O)NCc1cc2cc(F)c(OCc3ccon3)cc2[nH]1` [Compound 207, N-((5-fluoro-6-(isoxazol-3-ylmethoxy)-1H-indol-2-yl)methyl)acetamide]: the IC50 was determined as 926 nM.

With `CC(=O)NCc1cc2cc(F)c(OCc3cscn3)cc2[nH]1` [Compound 208, N-((5-fluoro-6-(thiazol-4-ylmethoxy)-1H-indol-2-yl)methyl)acetamide], the IC50 was found to be 133 nM.

For the compound `CNC(=O)NCc1cc2cc(F)c(OCc3cc(C)no3)cc2[nH]1` [Compound 210, 1-((5-fluoro-6-((3-methylisoxazol-5-yl)methoxy)-1H-indol-2-yl)methyl)-3-methylurea], the IC50 amounted to 293 nM.

Regarding `CNC(=O)NCc1cc2cc(F)c(OCc3cc(C)on3)cc2[nH]1` [Compound 212, 1-((5-fluoro-6-((5-methylisoxazol-3-yl)methoxy)-1H-indol-2-yl)methyl)-3-methylurea], the IC50 turned out to be 429 nM.

`CNC(=O)NCc1cc2cc(Cl)c(OCc3cc(C)on3)cc2[nH]1` [Compound 213, 1-((5-chloro-6-((5-methylisoxazol-3-yl)methoxy)-1H-indol-2-yl)methyl)-3-methylurea]: the IC50 turned out to be 192 nM.

For `CC(=O)NCc1cc2cc(F)c(OCc3cocn3)cc2[nH]1` [Compound 224, N-((5-fluoro-6-(oxazol-4-ylmethoxy)-1H-indol-2-yl)methyl)acetamide], the IC50 worked out at 545 nM.

Take `Cc1cc(COc2cc3[nH]c(CNC(=O)CC4(O)CC4)cc3cc2Cl)on1` [Compound 237, N-((5-chloro-6-((3-methylisoxazol-5-yl)methoxy)-1H-indol-2-yl)methyl)-2-(1-hydroxycyclopropyl)acetamide]: the IC50 is 1410 nM.

Regarding `Cc1cc(COc2cc3[nH]c(CNC(=O)C(O)C4CC4)cc3cc2Cl)on1` (centres unmarked) [Compound 238, N-((5-chloro-6-((3-methylisoxazol-5-yl)methoxy)-1H-indol-2-yl)methyl)-2-cyclopropyl-2-hydroxyacetamide], the IC50 was found to be 1450 nM.

Turning to `Cc1cc(COc2cc3[nH]c(CNC(=O)[C@H](C)O)cc3cc2F)on1` [Compound 239, (S)-N-((5-fluoro-6-((3-methylisoxazol-5-yl)methoxy)-1H-indol-2-yl)methyl)-2-hydroxypropanamide], the IC50 was found to be 5880 nM.

`CC[C@H](O)C(=O)NCc1cc2cc(Cl)c(OCc3cc(C)no3)cc2[nH]1` [Compound 240, (S)-N-((5-chloro-6-((3-methylisoxazol-5-yl)methoxy)-1H-indol-2-yl)methyl)-2-hydroxybutanamide]: the IC50 was determined as 490 nM.

For `CC[C@@H](O)C(=O)NCc1cc2cc(Cl)c(OCc3cc(C)no3)cc2[nH]1` [Compound 241, (R)-N-((5-chloro-6-((3-methylisoxazol-5-yl)methoxy)-1H-indol-2-yl)methyl)-2-hydroxybutanamide], the IC50 came out at 1020 nM.

Turning to `Cc1cc(COc2cc3[nH]c(CNC(=O)CO)cc3cc2Cl)on1` [Compound 242, N-((5-chloro-6-((3-methylisoxazol-5-yl)methoxy)-1H-indol-2-yl)methyl)-2-hydroxyacetamide], the IC50 stood at 674 nM.

For the compound `CC(O)C(=O)NCc1cc2cc(Cl)c(OCc3cscn3)cc2[nH]1` (centres unmarked) [Compound 243, N-((5-chloro-6-(thiazol-4-ylmethoxy)-1H-indol-2-yl)methyl)-2-hydroxypropanamide], the IC50 was 336 nM.

With `O=C(CO)NCc1cc2cc(Cl)c(OCc3cscn3)cc2[nH]1` [Compound 244, N-((5-chloro-6-(thiazol-4-ylmethoxy)-1H-indol-2-yl)methyl)-2-hydroxyacetamide], the IC50 was 391 nM.

Regarding `Cc1cc(COc2cc3[nH]c(CNC(=O)CC4CCO4)cc3cc2Cl)on1` (centres unmarked) [Compound 245, N-((5-chloro-6-((3-methylisoxazol-5-yl)methoxy)-1H-indol-2-yl)methyl)-2-(oxetan-2-yl)acetamide], the IC50 is 1190 nM.

In the case of `Cc1cc(COc2cc3[nH]c(CNC(=O)[C@H](O)CF)cc3cc2Cl)on1` [Compound 246, (S)-N-((5-chloro-6-((3-methylisoxazol-5-yl)methoxy)-1H-indol-2-yl)methyl)-3-fluoro-2-hydroxypropanamide], the IC50 stood at 411 nM.

Consider `Cc1cc(COc2cc3[nH]c(CNC(=O)[C@@H](O)CF)cc3cc2Cl)on1` [Compound 247, (R)-N-((5-chloro-6-((3-methylisoxazol-5-yl)methoxy)-1H-indol-2-yl)methyl)-3-fluoro-2-hydroxypropanamide], for which the concentration for half-maximal inhibition (IC50) came to 770 nM.

As to `Cc1cc(COc2cc3[nH]c(CNC(=O)C(C)(C)O)cc3cc2Cl)on1` [Compound 249, N-((5-chloro-6-((3-methylisoxazol-5-yl)methoxy)-1H-indol-2-yl)methyl)-2-hydroxy-2-methylpropanamide], the IC50 is 545 nM.

Source of the values: patent US20240199546A1, “INHIBITORS OF SOLUTE CARRIER FAMILY 6A MEMBER 19 (SLC6A19) AND METHODS OF USE THEREOF” (Maze Therapeutics, Inc., priority 2022, published 2024).
